The text below walks through data of ChEMBL document CHEMBL1122313, “Novel 17 alpha-chloro-17 beta-sulfinyl steroids as specific inhibitors of sebaceous gland activity: potential antiacne agents” (1983).

Molecules are shown by their SMILES.

In test [1] the test system is Cricetinae gen. sp. The test can be described thus: Inhibition of lipid synthesis in hamster flank gland after administration of 0.1 mg. It is filed as functional.
Test [2] concerns Cricetinae gen. sp. The test is described as follows: Inhibition of increase in flank organ weight after administration of 0.5 mg. The class given is functional, Cricetulus griseus.
Test [3] has as its system Cricetinae gen. sp. The test is described as follows: The compound was tested for the seminal vesicle weight after -0.375 ug topical application for 14 days. The class given is functional, Cricetulus griseus.
Test [4] deals with Cricetinae gen. sp. The test is described as follows: Inhibition of increase in flank organ weight after administration of 1.0 mg. It is filed as functional, Cricetulus griseus.
Test [5] has as its system Cricetinae gen. sp. The test can be described thus: The compound was tested for the treated flank organ weight after -1 mg sc administration for 14 days. The class given is functional, Cricetulus griseus.
For test [6], the system named is Cricetinae gen. sp. The test is described as follows: The compound was tested for the seminal vesicle weight after -5 mg sc administration for 14 days. The class given is functional, Cricetulus griseus.
Test [7] relates to Cricetinae gen. sp. The test can be described thus: The compound was tested for the seminal vesicle weight after -1 mg sc administration for 14 days. It is filed as functional, Cricetulus griseus.
Test [8] deals with Cricetinae gen. sp. The test can be described thus: The compound was tested for the treated flank organ weight after -5 mg sc administration for 14 days. The class given is functional, Cricetulus griseus.
Test [9] relates to Cricetinae gen. sp. The test can be described thus: The compound was tested for the treated flank organ weight after -0.375 ug topical application for 14 days. The class given is functional, Cricetulus griseus.
The test system of test [10] is Cricetinae gen. sp. The test is described as follows: The compound was tested for the seminal vesicle weight after -0.75 ug topical application for 14 days. The class given is functional, Cricetulus griseus.
Test [11] relates to Cricetinae gen. sp. The test can be described thus: The compound was tested for the treated flank organ weight after -0.75 ug topical application for 14 days. It is filed as functional, Cricetulus griseus.

For `[O-][S+](CCl)Cc1ccccc1` (stereo unspecified), the Inhibition (commonly the percentage by which the read-out fell short of the control) in test [1] amounted to 14%.

As for `C[C@]12C=CC(=O)C=C1CCC1C2C(=O)C[C@@]2(C)C1CC[C@]2(Cl)[S+]([O-])CCc1ccccc1` (stereo partly specified), the Inhibition is 0% in test [1] and 16% in test [2].

`C[C@]12C=CC(=O)C=C1CCC1C2CC[C@@]2(C)C1CC[C@]2(Cl)[S+]([O-])Cc1ccccc1` (stereo partly specified): in [1], the Inhibition was below 40%.

As to `C[C@]12C=CC(=O)C=C1CCC1C2C(=O)C[C@@]2(C)C1CC[C@]2(Cl)[S+]([O-])Cc1ccccc1` (stereo partly specified), the Organ weight in [3] was 351 mg; in test [5], below 21.5 mg; in test [6], 128 mg; in test [7] it was 138 mg; in test [8], below 19.5 mg; in test [9] it was below 29.5 mg. In addition, the figures for the Organ weight in [10] and in test [11] were 358 mg and below 23.7 mg, respectively. For the same molecule, the Inhibition is on record as 53% in test [4], below 70% in test [1] and 43% in test [2].

Consider `C[C@]12C=CC(=O)C=C1CCC1C2C(=O)C[C@@]2(C)C1CC[C@H]2[S+]([O-])C(Cl)c1ccccc1` (stereo partly specified), for which, in [1], the Inhibition is given as 0%.

As for `C[C@]12C=CC(=O)C=C1CCC1C2C(=O)C[C@@]2(C)C1CC[C@]2(Cl)S(=O)(=O)Cc1ccccc1` (stereo partly specified), the Inhibition in test [1] is given as below 31%.

Take `C[C@]12C=CC(=O)C=C1CCC1C2[C@@H](O)C[C@@]2(C)C1CC[C@]2(Cl)[S+]([O-])Cc1ccccc1` (stereo partly specified): the Inhibition in test [1] is reported as below 20%.

`C[C@]12C=CC(=O)C=C1CCC1C2CC[C@@]2(C)C1CC[C@H]2SCc1ccccc1` (stereo partly specified) yielded an Inhibition in [1] of 0%.

In turn, `C[C@]12C=CC(=O)C=C1CCC1C2C(=O)C[C@@]2(C)C1CC[C@H]2Sc1ccccc1` (stereo partly specified) had an Inhibition in test [1] below 25%.

`[O-][S+](Cc1ccccc1)[C@@H](Cl)c1ccccc1` (stereo partly specified) came in with an Inhibition in test [1] of 14%.

In test [1], `C[C@]12C=CC(=O)C=C1CCC1C2C(=O)C[C@@]2(C)C1CC[C@H]2SCc1ccccc1` (stereo partly specified) came in with an Inhibition below 29%.

In turn, `C[C@]12C=CC(=O)C=C1CCC1C2[C@@H](O)C[C@@]2(C)C1CC[C@H]2SCc1ccccc1` (stereo partly specified) came in with an Inhibition in test [1] of 0%.

In turn, `C[C@]12C=CC(=O)C=C1CCC1C2C(=O)C[C@@]2(C)C1CC[C@H]2[S+]([O-])Cc1ccccc1` (stereo partly specified) displayed an Inhibition in [1] of 28%.

Molecule `CCCCC[S+]([O-])[C@@]1(Cl)CCC2C3CCC4=CC(=O)C=C[C@]4(C)C3C(=O)C[C@@]21C` (stereo partly specified) came in with an Inhibition in [1] below 29%.

With `Cc1ccccc1C[S+]([O-])[C@@]1(Cl)CCC2C3CCC4=CC(=O)C=C[C@]4(C)C3C(=O)C[C@@]21C` (stereo partly specified), the Inhibition in test [1] was found to be 31%.

In turn, `C[C@]12C=CC(=O)C=C1CCC1C2C(=O)C[C@@]2(C)C1CC[C@]2(Cl)[S+]([O-])Cc1ccc(Cl)cc1Cl` (stereo partly specified) registered an Inhibition in test [1] of 20%.

On to `C[C@]12C=CC(=O)C=C1CCC1C2C(=O)C[C@@]2(C)C1CC[C@]2(Cl)[S+]([O-])c1ccccc1` (stereo partly specified), for which the Inhibition in [1] was determined as 20%.

In the case of `C[C@]1(O)CC[C@H]2[C@@H]3CCC4=CC(=O)CC[C@@H]4[C@H]3CC[C@@]21C` [NORMETHANDRONE], the Organ weight is 316 mg in test [3]; below 22.5 mg in test [5]; below 94 mg in [6]; 121 mg in test [7]; below 22.1 mg in test [8]; below 15.6 mg in test [9]. Moreover, the values for the Organ weight in test [10] and in test [11] were below 283 mg and below 13.7 mg, respectively.
